Read-outs that look alike come from different tables or passages of the source.
Experiments:
Human α4β2 = target: T1, Human α4β2 (Homo sapiens, UniProt P17787+P43681); assay: Competition binding to human α4β2 receptors in membranes of SH-EP1/human α4β2 cells ([3H]-nicotine); settings: membrane competition binding
T1 construct: host or cells: SH-EP1

Rat α4β2 = target: T2, Rat α4β2 (Rattus norvegicus, UniProt P09483+P12390); assay: Competition binding to rat α4β2 receptors in rat cortical membranes; settings: rat cortex membranes
T2 construct: Rat cortices were obtained from Analytical Biological Services; tissue Analytical Biological Services, Incorporated (ABS, Wilmington, Del.); host or cells: rat cortex (female Sprague-Dawley)
Procedure: Preparation of membranes from rat tissues. Rat cortices were obtained from Analytical Biological Services, Incorporated (ABS, Wilmington, Del.). Tissues were dissected from female Sprague-Dawley rats, frozen and shipped on dry ice. Tissues were stored at −20° C. until needed for membrane preparation. […] The resulting homogenate was centrifuged at 40,000 g for 20 minutes at 4° C. and the resulting pellet was resuspended in 20 volumes of ice-cold water. After 60-minute incubation at 4° C., a new pellet was collected by centrifugation at 40,000 g for 20 minutes at 4° C. The final pellet was resuspended in preparative buffer and stored at −20° C. On the day of the assay, tissue was thawed, centrifuged at 40,000 g for 20 minutes and then resuspended in PBS (Dulbecco's Phosphate Buffered Saline, Life Technologies, pH 7.4) to a final concentration of 2-3 mg protein/mL. Protein concentrations were determined using the Pierce BCA Protein Assay kit (Pierce Biotechnology, Rockford, Ill.), with bovine serum albumin as the standard.
Competition binding to receptors in membrane preparations. […] In brief, membranes were reconstituted from frozen stocks (approximately 0.2 mg protein) and incubated for 2 h on ice in […] assay buffer (PBS) in the presence of competitor compound (0.001 nM to […]) and radioligand. [^3H]-nicotine (L-(−)-[N-methyl-3H]-nicotine, 69.5 Ci/mmol, Perkin-Elmer Life Sciences) was used for human α4β2 binding studies. [^3H]-epibatidine (52 Ci/mmol, Perkin-Elmer Life Sciences) was used for binding studies at the other receptor subtypes. […] Filters were washed 3 times and the radioactivity retained was determined by liquid scintillation counting.
Binding data analysis. Binding data were expressed as percent total control binding. Replicates for each point were averaged and plotted against the log of drug concentration.

α6β3β4α5 = target: T3, α6β3β4α5 (Homo sapiens, UniProt P30926+Q15825); assay: Competition binding to α6β3β4α5 receptors in membranes of SH-EP1/α6β3β4α5 cells ([3H]-epibatidine); settings: membrane competition binding, read-out: α6β3β4α5 Ki
T3 construct: host or cells: SH-EP1

| Compound | Ki (Human α4β2; read-out: Human α4β2 Ki) | also measured |
| --- | --- | --- |
| O=C([C@@H]1CCCO1)N1CC2CC(C1)N2 | 370 nM | – |
| O=C(N1CC2CC(C1)N2)C1(C(F)(F)F)CCC1 | 6300 nM | – |
| CC1(C)CC(C(=O)N2CC3CC(C2)N3)C1 | – | Ki (Human α4β2; Human α4β2 Ki): 69 nM; Ki (Rat α4β2; read-out: Rat α4β2 Ki): 520 nM |
| O=C(CC1CCCO1)N1CC2CC(C1)N2 (stereo not drawn) | 2900 nM | – |
| CC(=O)NCCC(=O)N1CC2CC(C1)N2 | 3400 nM | – |
| CC(=O)NCCCC(=O)N1CC2CC(C1)N2 | 1900 nM | – |
| O=C([C@H]1CCCO1)N1CC2CC(C1)N2 | 400 nM | – |
| Cc1nocc1C(=O)N1CC2CC(C1)N2 | – | Ki (Human α4β2; Human α4β2 Ki): 53 nM; Ki (Rat α4β2; Rat α4β2 Ki): 60 nM |
| CC(C)CC(=O)N1CC2CC(C1)N2 | – | Ki (Human α4β2; Human α4β2 Ki): 34 nM; Ki (Rat α4β2; Rat α4β2 Ki): 70 nM |
| O=C(C1CC=CCC1)N1CC2CC(C1)N2 (stereo not drawn) | 120 nM | Ki (Rat α4β2; read-out: Rat α4β2 Ki): 390 nM |
| O=C(c1cnc(Cl)c(Cl)c1)N1CC2CC(C1)N2 | 1500 nM | – |
| Cc1cc(C(=O)N2CC3CC(C2)N3)no1 | 1100 nM | – |
| O=C(CC1C=CCC1)N1C2CNCC1C2 (stereo not drawn) | 150 nM | Ki (Rat α4β2; Rat α4β2 Ki): 71 nM |
| O=C(C1Cc2ccccc2C1)N1C2CNCC1C2 | 3000 nM | – |
| O=C(COCc1ccccc1)N1C2CNCC1C2 | 1400 nM | – |
| O=C(CCOc1ccc(F)cc1)N1C2CNCC1C2 | 1200 nM | – |
| O=C(C1Cc2ccccc21)N1C2CNCC1C2 (stereo not drawn) | 9400 nM | – |
| CO[C@H](C(=O)N1C2CNCC1C2)c1ccccc1 | 7100 nM | – |
| O=C(Cc1c[nH]c2ccccc12)N1C2CNCC1C2 | 2200 nM | – |
| O=C(COc1ccc(F)cc1)N1C2CNCC1C2 | 1300 nM | – |
| O=C(CC1CCCO1)N1C2CNCC1C2 (stereo not drawn) | 2000 nM | – |
| O=C([C@@H]1CCCO1)N1C2CNCC1C2 | 750 nM | – |

| Compound | Ki (Human α4β2; read-out: Human α4β2 Ki) | also measured |
| --- | --- | --- |
| O=C(CC1CCOCC1)N1C2CNCC1C2 | 3300 nM | – |
| Cn1c(C(=O)N2C3CNCC2C3)cc2ccccc21 | 2900 nM | – |
| O=C(C1CCOCC1)N1C2CNCC1C2 | 2000 nM | – |
| O=C(C1CC=CC1)N1CC2CC(C1)N2 | – | Ki (Human α4β2; Human α4β2 Ki): 37 nM; Ki (Rat α4β2; Rat α4β2 Ki): 260 nM |
| COCC(=O)N1CC2CC(C1)N2 | – | Ki (Human α4β2; Human α4β2 Ki): 79 nM; Ki (Rat α4β2; Rat α4β2 Ki): 50 nM |
| CCC(C)C(=O)N1CC2CC(C1)N2 (stereo not drawn) | 150 nM | Ki (Rat α4β2; read-out: Rat α4β2 Ki): 240 nM |
| O=C(C1CNC1)N1CC2CC(C1)N2 | 430 nM | – |
| O=C(C1CC2CCC1C2)N1CC2CC(C1)N2 (stereo not drawn) | – | Ki (Human α4β2; Human α4β2 Ki): 60 nM; Ki (Rat α4β2; read-out: Rat α4β2 Ki): 220 nM |
| O=C(c1ccnc(Cl)c1)N1CC2CC(C1)N2 | 450 nM | – |
| O=C(C1CCCC1)N1CC2CC(C1)N2 | – | Ki (Human α4β2; Human α4β2 Ki): 170 nM; Ki (Rat α4β2; Rat α4β2 Ki): 77 nM |
| O=C(c1cc(Cl)cc(Cl)c1)N1CC2CC(C1)N2 | 3300 nM | – |
| O=C(C1CCC1)N1CC2CC(C1)N2 | – | Ki (Human α4β2; Human α4β2 Ki): 28 nM; Ki (Rat α4β2; Rat α4β2 Ki): 6.8 nM |
| O=C(C1CC=CC1)N1C2CNCC1C2 | 810 nM | – |
| COCC(=O)N1C2CNCC1C2 | 410 nM | – |
| CCC(C)C(=O)N1C2CNCC1C2 (stereo not drawn) | 290 nM | – |
| O=C(C1CC2CCC1C2)N1C2CNCC1C2 (stereo not drawn) | 1700 nM | – |
| O=C(c1ccnc(Cl)c1)N1C2CNCC1C2 | 970 nM | – |
| CC1(C)C(C(=O)N2C3CNCC2C3)C1(C)C | 11000 nM | – |
| CC1CC1C(=O)N1C2CNCC1C2 (stereo not drawn) | – | Ki (Human α4β2; Human α4β2 Ki): 46 nM; Ki (Rat α4β2; Rat α4β2 Ki): 34 nM |
| O=C(C1CCCC1)N1C2CNCC1C2 | 420 nM | – |
| O=C(c1cc(Cl)cc(Cl)c1)N1C2CNCC1C2 | 1200 nM | Ki (α6β3β4α5): 14000 nM |
| Cc1cc(C(=O)N2C3CNCC2C3)no1 | – | Ki (Human α4β2; Human α4β2 Ki): 100 nM; Ki (Rat α4β2; Rat α4β2 Ki): 50 nM |

| Compound | Ki (Human α4β2; read-out: Human α4β2 Ki) | also measured |
| --- | --- | --- |
| Cc1ncoc1C(=O)N1C2CNCC1C2 | 140 nM | Ki (Rat α4β2; read-out: Rat α4β2 Ki): 250 nM |
| Cc1nocc1C(=O)N1C2CNCC1C2 | 1100 nM | – |
| O=C(c1cnco1)N1C2CNCC1C2 | – | Ki (Human α4β2; Human α4β2 Ki): 72 nM; Ki (Rat α4β2; Rat α4β2 Ki): 17 nM |
| CC(C)C(=O)N1C2CNCC1C2 | 260 nM | – |
| CC(C)CC(=O)N1C2CNCC1C2 | 120 nM | Ki (Rat α4β2; Rat α4β2 Ki): 59 nM |
| O=C(C1CC=CCC1)N1C2CNCC1C2 (stereo not drawn) | 1200 nM | – |
| CC1(C)CC(C(=O)N2C3CNCC2C3)C1 | 760 nM | – |
| O=C(CC1C=CCC1)N1CC2CC(C1)N2 (stereo not drawn) | – | Ki (Human α4β2; Human α4β2 Ki): 11 nM; Ki (Rat α4β2; Rat α4β2 Ki): 34 nM |
| O=C(CC1CCCC1)N1CC2CC(C1)N2 | 440 nM | – |
| O=C(C1Cc2ccccc2C1)N1CC2CC(C1)N2 | 800 nM | – |
| O=C(COCc1ccccc1)N1CC2CC(C1)N2 | 1000 nM | – |
| O=C(CCOc1ccc(F)cc1)N1CC2CC(C1)N2 | 660 nM | – |
| O=C(C1Cc2ccccc21)N1CC2CC(C1)N2 (stereo not drawn) | 2000 nM | – |
| CO[C@H](C(=O)N1CC2CC(C1)N2)c1ccccc1 | 950 nM | – |
| O=C(CC1CCOC1)N1CC2CC(C1)N2 (stereo not drawn) | 240 nM | – |
| O=C(Cc1c[nH]c2ccccc12)N1CC2CC(C1)N2 | 750 nM | – |
| O=C(COc1ccc(F)cc1)N1CC2CC(C1)N2 | 360 nM | – |
| O=C(CC1CCOCC1)N1CC2CC(C1)N2 | 2800 nM | – |
| Cn1c(C(=O)N2CC3CC(C2)N3)cc2ccccc21 | 420 nM | – |
| O=C(C1CCOCC1)N1CC2CC(C1)N2 | 320 nM | – |
| O=C(CC1CC1)N1CC2CC(C1)N2 | – | Ki (Human α4β2; Human α4β2 Ki): 64 nM; Ki (Rat α4β2; Rat α4β2 Ki): 17 nM |
| O=C([C@H]1C[C@H]1F)N1C2CNCC1C2 | – | Ki (Human α4β2; Human α4β2 Ki): 3.7 nM; Ki (Rat α4β2; Rat α4β2 Ki): 0.89 nM |

| Compound | Ki (Human α4β2; read-out: Human α4β2 Ki) | also measured |
| --- | --- | --- |
| O=C([C@H]1C[C@@H]1F)N1C2CNCC1C2 | – | Ki (Human α4β2; Human α4β2 Ki): 2.2 nM; Ki (Rat α4β2; Rat α4β2 Ki): 1 nM |
| O=C(COc1ccc(Cl)c(Cl)c1)N1CC2CC(C1)N2 | 330 nM | Ki (α6β3β4α5): 700 nM |
| O=C(NCc1ccc(Cl)cc1)N1C2CNCC1C2 | 6500 nM | Ki (α6β3β4α5): 3400 nM |
| O=C(NCc1ccc(Cl)cc1Cl)N1C2CNCC1C2 | 1100 nM | Ki (α6β3β4α5): 21000 nM |
| O=C(NCc1ccc(Cl)c(Cl)c1)N1C2CNCC1C2 | 3100 nM | Ki (α6β3β4α5): 5900 nM |
| O=C(C1C2C3CCC(C3)C12)N1CC2CC(C1)N2 (stereo not drawn) | 1300 nM | Ki (α6β3β4α5): 22000 nM |
| CCC1(CC)CC1C(=O)N1C2CNCC1C2 (stereo not drawn) | 850 nM | Ki (α6β3β4α5): 4400 nM |
| C[C@@H]1C[C@@H]1C(=O)N1CC2CC(C1)N2 | 22 nM | – |
| O=C(OCCF)N1CC2CC(C1)N2 [3-(2-fluoroethoxy)carbonyl-3,6-diazabicyclo[3.1.1]heptane] | – | Ki (Human α4β2; Human α4β2 Ki): 5.9 nM; Ki (Rat α4β2; Rat α4β2 Ki): 52 nM |
| COCCC(=O)N1CC2CC(C1)N2 [3-(2-methoxyethyl)carbonyl-3,6-diazabicyclo[3.1.1]heptane] | – | Ki (Human α4β2; Human α4β2 Ki): 72 nM |
| O=C(c1ccno1)N1CC2CC(C1)N2 [3-(isoxazol-5-yl)carbonyl-3,6-diazabicyclo[3.1.1]heptane] | 150 nM | – |
| O=C(C1CCOC1)N1CC2CC(C1)N2 (stereo not drawn) [3-(tetrahydrofuran-3-yl)carbonyl-3,6-diazabicyclo[3.1.1]heptane] | 270 nM | – |
| CC(C)OC(=O)N1CC2CC(C1)N2 [3-isopropoxycarbonyl-3,6-diazabicyclo[3.1.1]heptane] | 130 nM | – |
| COCCOC(=O)N1CC2CC(C1)N2 [3-methoxyethoxycarbonyl-3,6-diazabicyclo[3.1.1]heptane] | 120 nM | – |
| CC(=O)N1CC2CC(C1)N2 [3-methylcarbonyl-3,6-diazabicyclo[3.1.1]heptane] | – | Ki (Human α4β2; Human α4β2 Ki): 170 nM |
| CCCOC(=O)N1CC2CC(C1)N2 [3-propoxycarbonyl-3,6-diazabicyclo[3.1.1]heptane] | – | Ki (Human α4β2; Human α4β2 Ki): 24 nM |
| O=C(c1ccc(Br)o1)N1C2CNCC1C2 [6-(2-bromorofuran-5-yl)carbonyl-3,6-diazabicyclo[3.1.1]heptane] | – | Ki (Human α4β2; Human α4β2 Ki): 66 nM; Ki (Rat α4β2; read-out: Rat α4β2 Ki): 260 nM |
| O=C(c1ccc(Cl)o1)N1C2CNCC1C2 [6-(2-chlorofuran-5-yl)carbonyl-3,6-diazabicyclo[3.1.1]heptane] | – | Ki (Human α4β2; Human α4β2 Ki): 38 nM; Ki (Rat α4β2; Rat α4β2 Ki): 44 nM |
| COCCC(=O)N1C2CNCC1C2 [6-(2-methoxyethyl)carbonyl-3,6-diazabicyclo[3.1.1]heptane] | 370 nM | – |
| O=C(C1CCC1)N1C2CNCC1C2 [6-cyclobutylcarbonyl-3,6-diazabicyclo[3.1.1]heptane] | – | Ki (Human α4β2; Human α4β2 Ki): 14 nM; Ki (Rat α4β2; Rat α4β2 Ki): 26 nM |
